Test results published in the supplement of paper PMC6411743.

These targets were tested with Nc1ncnc2c1ncn2[C@@H]1O[C@H](COP(=O)(O)OP(=O)(O)OP(=O)(O)O)[C@@H](O)[C@H]1O [adenosine triphosphate] (assay: pEC50 of ATP-induced change in protein thermal stability (2D-TPP)).
How it was run: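 Jurkat crude lysate was treated for 10 min at room temperature with five concentrations including vehicle, heated to 12 temperatures (42–63.9 °C) for 3 min, and given NP40 and benzonase (60 min, 4 °C). After ultracentrifugation, soluble protein was quantified by TMT LC-MS/MS, with fold changes against vehicle per temperature, median-normalised. pEC50 comes from dose-response fits per replicate over adjacent temperature pairs, with hits called by permutation-based false discovery rate control. Three independent experiments.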
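Further: lysate dosed with Na-ATP at 0 0.005 0.05 0.5 and 2 mM.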

Chain of UniProt P50897 (P50897 whole entry): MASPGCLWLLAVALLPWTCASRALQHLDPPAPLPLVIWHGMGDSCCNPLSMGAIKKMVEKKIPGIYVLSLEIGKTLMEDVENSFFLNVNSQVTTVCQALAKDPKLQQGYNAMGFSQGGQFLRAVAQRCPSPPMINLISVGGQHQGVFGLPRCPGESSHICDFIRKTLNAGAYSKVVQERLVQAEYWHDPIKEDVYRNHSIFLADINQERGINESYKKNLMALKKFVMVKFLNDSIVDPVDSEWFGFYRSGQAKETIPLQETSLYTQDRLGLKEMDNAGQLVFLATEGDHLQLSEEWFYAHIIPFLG
Chain of UniProt Q9UNM6 (Q9UNM6 whole entry): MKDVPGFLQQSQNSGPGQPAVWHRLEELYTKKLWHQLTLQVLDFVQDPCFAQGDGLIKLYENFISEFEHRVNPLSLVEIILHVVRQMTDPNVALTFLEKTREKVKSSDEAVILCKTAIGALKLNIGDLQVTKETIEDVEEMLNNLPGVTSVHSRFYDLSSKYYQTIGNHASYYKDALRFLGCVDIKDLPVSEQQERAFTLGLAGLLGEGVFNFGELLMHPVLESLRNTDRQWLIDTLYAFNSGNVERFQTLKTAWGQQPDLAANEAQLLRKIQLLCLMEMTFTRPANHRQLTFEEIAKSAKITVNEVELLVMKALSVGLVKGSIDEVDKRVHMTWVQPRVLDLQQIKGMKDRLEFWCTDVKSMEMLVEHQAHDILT
Chain of UniProt Q13523 (Q13523 whole entry, looked up): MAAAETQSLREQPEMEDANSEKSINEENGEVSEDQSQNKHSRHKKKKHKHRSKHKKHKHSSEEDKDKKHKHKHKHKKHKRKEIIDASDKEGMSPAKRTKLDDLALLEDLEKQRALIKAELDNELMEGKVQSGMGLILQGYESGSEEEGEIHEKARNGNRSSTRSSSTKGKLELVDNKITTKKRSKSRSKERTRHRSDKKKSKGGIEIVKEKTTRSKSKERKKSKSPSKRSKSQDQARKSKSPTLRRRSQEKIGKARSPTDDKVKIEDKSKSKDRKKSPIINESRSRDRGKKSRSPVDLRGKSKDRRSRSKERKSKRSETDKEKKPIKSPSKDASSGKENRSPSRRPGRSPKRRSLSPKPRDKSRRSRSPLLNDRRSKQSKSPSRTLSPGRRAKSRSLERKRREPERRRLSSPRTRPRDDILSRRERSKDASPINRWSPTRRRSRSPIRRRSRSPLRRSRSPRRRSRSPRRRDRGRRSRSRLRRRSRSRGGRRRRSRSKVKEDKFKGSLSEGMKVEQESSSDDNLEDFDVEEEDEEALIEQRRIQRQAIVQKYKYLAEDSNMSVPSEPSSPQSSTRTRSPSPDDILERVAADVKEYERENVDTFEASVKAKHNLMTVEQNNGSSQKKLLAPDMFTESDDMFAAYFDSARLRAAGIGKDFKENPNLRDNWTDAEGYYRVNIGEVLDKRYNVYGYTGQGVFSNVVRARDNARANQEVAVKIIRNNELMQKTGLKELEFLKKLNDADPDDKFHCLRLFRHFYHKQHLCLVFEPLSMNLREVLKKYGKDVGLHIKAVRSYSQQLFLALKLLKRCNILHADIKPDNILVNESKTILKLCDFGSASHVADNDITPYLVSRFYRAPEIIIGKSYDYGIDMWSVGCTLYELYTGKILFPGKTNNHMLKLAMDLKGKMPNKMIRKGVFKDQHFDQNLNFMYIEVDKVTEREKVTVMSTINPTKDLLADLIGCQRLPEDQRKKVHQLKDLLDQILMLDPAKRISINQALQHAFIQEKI
Chain of UniProt O14730 (O14730 whole entry): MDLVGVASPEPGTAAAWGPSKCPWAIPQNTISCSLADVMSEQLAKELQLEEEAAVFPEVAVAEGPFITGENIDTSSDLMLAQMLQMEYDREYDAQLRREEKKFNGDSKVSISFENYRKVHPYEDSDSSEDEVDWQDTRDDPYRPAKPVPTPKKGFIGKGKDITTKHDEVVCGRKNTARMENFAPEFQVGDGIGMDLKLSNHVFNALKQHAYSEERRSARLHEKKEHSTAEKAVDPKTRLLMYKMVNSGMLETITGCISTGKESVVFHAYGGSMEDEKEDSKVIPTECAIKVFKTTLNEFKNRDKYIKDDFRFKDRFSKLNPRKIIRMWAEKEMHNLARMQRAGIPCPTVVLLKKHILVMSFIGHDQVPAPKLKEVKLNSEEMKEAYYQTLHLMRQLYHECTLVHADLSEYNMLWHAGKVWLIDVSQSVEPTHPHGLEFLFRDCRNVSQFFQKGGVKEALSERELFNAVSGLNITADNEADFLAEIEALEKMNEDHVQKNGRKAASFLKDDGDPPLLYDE
Chain of UniProt P46060 (P46060 whole entry): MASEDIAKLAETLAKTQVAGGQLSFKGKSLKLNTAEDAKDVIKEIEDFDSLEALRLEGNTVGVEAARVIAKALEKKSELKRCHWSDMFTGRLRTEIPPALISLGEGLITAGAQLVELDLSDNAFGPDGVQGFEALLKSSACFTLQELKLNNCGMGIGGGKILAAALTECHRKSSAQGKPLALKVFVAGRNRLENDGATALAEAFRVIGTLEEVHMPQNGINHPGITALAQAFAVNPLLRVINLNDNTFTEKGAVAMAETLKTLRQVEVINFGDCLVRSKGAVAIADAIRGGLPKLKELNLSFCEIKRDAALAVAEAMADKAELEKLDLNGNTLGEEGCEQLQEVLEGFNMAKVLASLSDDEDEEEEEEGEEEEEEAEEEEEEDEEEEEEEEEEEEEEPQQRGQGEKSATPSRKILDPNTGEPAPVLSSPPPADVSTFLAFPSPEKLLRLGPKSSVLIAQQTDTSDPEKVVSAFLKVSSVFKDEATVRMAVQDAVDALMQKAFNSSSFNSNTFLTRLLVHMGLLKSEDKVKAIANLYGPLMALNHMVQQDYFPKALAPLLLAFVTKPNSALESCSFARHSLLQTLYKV
Chain of UniProt Q9BRS2 (Q9BRS2 whole entry): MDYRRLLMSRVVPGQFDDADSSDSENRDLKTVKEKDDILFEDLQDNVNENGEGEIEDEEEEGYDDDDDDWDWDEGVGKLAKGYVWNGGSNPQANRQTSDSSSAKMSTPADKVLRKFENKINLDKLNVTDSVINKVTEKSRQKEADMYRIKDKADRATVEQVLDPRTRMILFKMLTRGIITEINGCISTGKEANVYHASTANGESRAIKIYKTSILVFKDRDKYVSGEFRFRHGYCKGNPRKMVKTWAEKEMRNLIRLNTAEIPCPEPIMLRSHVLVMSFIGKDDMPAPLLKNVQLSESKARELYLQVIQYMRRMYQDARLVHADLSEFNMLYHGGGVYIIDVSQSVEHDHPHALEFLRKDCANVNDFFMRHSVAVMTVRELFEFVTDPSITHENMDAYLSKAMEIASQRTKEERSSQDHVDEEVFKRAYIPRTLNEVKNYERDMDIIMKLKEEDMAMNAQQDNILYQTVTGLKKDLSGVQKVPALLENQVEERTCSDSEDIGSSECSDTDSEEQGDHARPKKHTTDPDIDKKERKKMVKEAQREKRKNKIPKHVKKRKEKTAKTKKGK
Chain of UniProt Q9Y606 (Q9Y606 whole entry): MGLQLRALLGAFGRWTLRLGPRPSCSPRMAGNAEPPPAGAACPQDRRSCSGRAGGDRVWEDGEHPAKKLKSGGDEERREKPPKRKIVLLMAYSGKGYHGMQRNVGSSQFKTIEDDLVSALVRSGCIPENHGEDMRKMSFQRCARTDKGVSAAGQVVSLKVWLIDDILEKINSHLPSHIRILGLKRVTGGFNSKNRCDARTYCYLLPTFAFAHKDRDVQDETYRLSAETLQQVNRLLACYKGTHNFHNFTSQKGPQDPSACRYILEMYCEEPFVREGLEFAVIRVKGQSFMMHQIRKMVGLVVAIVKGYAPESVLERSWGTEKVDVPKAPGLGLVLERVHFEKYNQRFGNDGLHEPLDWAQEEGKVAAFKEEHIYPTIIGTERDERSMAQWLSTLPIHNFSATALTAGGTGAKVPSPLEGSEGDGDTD
Chain of UniProt P48556 (P48556 whole entry): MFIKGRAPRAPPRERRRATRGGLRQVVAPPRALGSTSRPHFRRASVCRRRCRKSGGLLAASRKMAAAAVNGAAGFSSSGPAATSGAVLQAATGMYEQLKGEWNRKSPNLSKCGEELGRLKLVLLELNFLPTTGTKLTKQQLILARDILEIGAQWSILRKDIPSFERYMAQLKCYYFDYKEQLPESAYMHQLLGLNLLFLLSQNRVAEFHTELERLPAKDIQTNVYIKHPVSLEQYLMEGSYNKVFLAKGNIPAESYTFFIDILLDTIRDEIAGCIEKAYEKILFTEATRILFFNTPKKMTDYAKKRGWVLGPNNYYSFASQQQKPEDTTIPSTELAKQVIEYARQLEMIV
Chain of UniProt Q00577 (Q00577 whole entry): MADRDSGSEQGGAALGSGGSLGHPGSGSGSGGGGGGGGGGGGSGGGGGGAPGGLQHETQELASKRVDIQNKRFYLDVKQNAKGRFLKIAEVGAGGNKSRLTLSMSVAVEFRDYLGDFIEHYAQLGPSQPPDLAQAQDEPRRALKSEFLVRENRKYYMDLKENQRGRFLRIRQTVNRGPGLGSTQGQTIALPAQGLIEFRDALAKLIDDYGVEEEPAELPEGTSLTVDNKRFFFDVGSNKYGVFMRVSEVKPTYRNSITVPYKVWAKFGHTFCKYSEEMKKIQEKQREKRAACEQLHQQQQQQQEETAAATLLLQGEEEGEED
Chain of UniProt P67775 (P67775 whole entry): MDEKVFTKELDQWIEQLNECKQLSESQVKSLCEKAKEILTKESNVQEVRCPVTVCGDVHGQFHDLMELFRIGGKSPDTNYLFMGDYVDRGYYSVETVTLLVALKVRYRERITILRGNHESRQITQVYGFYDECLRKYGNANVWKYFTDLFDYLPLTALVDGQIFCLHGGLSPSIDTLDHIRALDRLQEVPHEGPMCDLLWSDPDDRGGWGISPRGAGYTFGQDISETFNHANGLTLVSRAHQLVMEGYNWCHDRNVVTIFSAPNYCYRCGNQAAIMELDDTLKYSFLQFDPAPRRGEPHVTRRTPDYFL
Chain of UniProt Q969G6 (Q969G6 whole entry): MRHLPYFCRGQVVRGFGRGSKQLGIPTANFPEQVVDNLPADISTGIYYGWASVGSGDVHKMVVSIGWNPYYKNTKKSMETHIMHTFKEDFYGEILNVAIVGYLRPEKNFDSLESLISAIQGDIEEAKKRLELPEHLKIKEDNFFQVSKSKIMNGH

pEC50	Target
< 2.7	PPM1F (effect direction: stabilized) (UniProt P49593)
< 2.7	PPM1G (effect direction: stabilized) (UniProt O15355)
< 2.7	PPM1H (effect direction: destabilized) (UniProt Q9ULR3)
< 2.7	PPP1R7 (effect direction: stabilized) (UniProt Q15435)
< 2.7	PPP2CA (effect direction: destabilized) (UniProt P67775)
< 2.7	PPP2R1A (effect direction: stabilized) (UniProt P30153)
3.09	PPP3CA (effect direction: destabilized) (UniProt Q08209)
3.06	PPP3CB (effect direction: destabilized) (UniProt P16298)
2.92	PPP3CC (effect direction: destabilized) (UniProt P48454)
3.3	PPT1 (effect direction: stabilized) (UniProt P50897)
2.94	PRCP (effect direction: stabilized) (UniProt P42785)
< 2.7	PRDX6 (effect direction: stabilized) (UniProt P30041)
3.22	PRKAB1 (effect direction: stabilized) (UniProt Q9Y478)
3.91	PRKACB (effect direction: stabilized) (UniProt P22694)
3.27	PRKAG1 (effect direction: stabilized) (UniProt P54619)
3.85	PRKAR1B (effect direction: stabilized) (UniProt P31321)
4.03	PRKAR2A (effect direction: stabilized) (UniProt P13861)
3.5	PRKCH (effect direction: stabilized) (UniProt P24723)
2.81	PRKRIP1 (effect direction: destabilized) (UniProt Q9H875)
3.18	PRPF4B (effect direction: stabilized) (UniProt Q13523)
3.33	PRPS2 (effect direction: stabilized) (UniProt P11908)
4.28	PSMC2 (effect direction: stabilized) (UniProt P35998)
4.02	PSMC3 (effect direction: stabilized) (UniProt P17980)

pEC50	Target
4.09	PSMC4 (effect direction: stabilized) (UniProt P43686)
4.35	PSMD1 (effect direction: stabilized) (UniProt Q99460)
3.96	PSMD2 (effect direction: stabilized) (UniProt Q13200)
4.24	PSMD3 (effect direction: stabilized) (UniProt O43242)
3.77	PSMD4 (effect direction: stabilized) (UniProt P55036)
3.99	PSMD5 (effect direction: stabilized) (UniProt Q16401)
4.15	PSMD6 (effect direction: stabilized) (UniProt Q15008)
4.16	PSMD7 (effect direction: stabilized) (UniProt P51665)
4.12	PSMD8 (effect direction: stabilized) (UniProt P48556)
4.08	PSMD11 (effect direction: stabilized) (UniProt O00231)
4.29	PSMD12 (effect direction: stabilized) (UniProt O00232)
4.14	PSMD13 (effect direction: stabilized) (UniProt Q9UNM6)
< 2.7	PTAR1 (effect direction: stabilized) (UniProt Q7Z6K3)
3.15	PTBP1 (effect direction: stabilized) (UniProt P26599)
3.13	PURA (effect direction: stabilized) (UniProt Q00577)
< 2.7	PURB (effect direction: stabilized) (UniProt Q96QR8)
2.99	PUS1 (effect direction: stabilized) (UniProt Q9Y606)
< 2.7	PUS7 (effect direction: stabilized) (UniProt Q96PZ0)
< 2.7	Q5JWF2|P63092 (effect direction: stabilized) (UniProt P63092+Q5JWF2)
5.16	RAB3GAP2 (effect direction: stabilized) (UniProt Q9H2M9)
< 2.7	RABGAP1 (effect direction: stabilized) (UniProt Q9Y3P9)
3.08	RABGEF1 (effect direction: stabilized) (UniProt Q9UJ41)
3.69	RACGAP1 (effect direction: stabilized) (UniProt Q9H0H5)

pEC50	Target
3.6	RAD21 (effect direction: stabilized) (UniProt O60216)
3.65	RAD51 (effect direction: stabilized) (UniProt Q06609)
3.46	RAD51C (effect direction: stabilized) (UniProt O43502)
3.3	RAD54L2 (effect direction: stabilized) (UniProt Q9Y4B4)
< 2.7	RANGAP1 (effect direction: stabilized) (UniProt P46060)
< 2.7	RAP1GDS1 (effect direction: stabilized) (UniProt P52306)
2.88	RAPGEF1 (effect direction: destabilized) (UniProt Q13905)
3.13	RASSF5 (effect direction: stabilized) (UniProt Q8WWW0)
3.07	RB1 (effect direction: stabilized) (UniProt P06400)
3.67	RBM26 (effect direction: stabilized) (UniProt Q5T8P6)
< 2.7	RBMX (effect direction: destabilized) (UniProt P38159)
3.2	RDH14 (effect direction: stabilized) (UniProt Q9HBH5)
< 2.7	RELA (effect direction: stabilized) (UniProt Q04206)
4.07	RFK (effect direction: stabilized) (UniProt Q969G6)
< 2.7	RFX1 (effect direction: stabilized) (UniProt P22670)
3.11	RIOK1 (effect direction: stabilized) (UniProt Q9BRS2)
3.7	RIOK3 (effect direction: stabilized) (UniProt O14730)
2.76	RNASEH2C (effect direction: stabilized) (UniProt Q8TDP1)
< 2.7	RNF20 (effect direction: stabilized) (UniProt Q5VTR2)
2.77	ROCK1 (effect direction: stabilized) (UniProt Q13464)
3.58	RPA1 (effect direction: stabilized) (UniProt P27694)
3.88	RPL10 (effect direction: destabilized) (UniProt P27635)
< 2.7	RPL10A (effect direction: destabilized) (UniProt P62906)

pEC50	Target
> 5.3	RPL13 (effect direction: destabilized) (UniProt P26373)
3.99	RPL14 (effect direction: destabilized) (UniProt P50914)
3.27	RPL17 (effect direction: destabilized) (UniProt P18621)
< 2.7	RPL18 (effect direction: destabilized) (UniProt Q07020)
3.2	RPL27A (effect direction: destabilized) (UniProt P46776)
4.17	RPL28 (effect direction: destabilized) (UniProt P46779)
4.92	RPL34 (effect direction: destabilized) (UniProt P49207)
< 2.7	RPN1 (effect direction: stabilized) (UniProt P04843)
3.82	RPS2 (effect direction: destabilized) (UniProt P15880)
< 2.7	RPS3 (effect direction: destabilized) (UniProt P23396)
3.86	RPS3A (effect direction: destabilized) (UniProt P61247)
< 2.7	RPS10 (effect direction: destabilized) (UniProt P46783)
< 2.7	RPSA (effect direction: stabilized) (UniProt P08865)
2.98	RRP9 (effect direction: destabilized) (UniProt O43818)
3.51	RRP15 (effect direction: destabilized) (UniProt Q9Y3B9)
3.21	RSBN1L (effect direction: stabilized) (UniProt Q6PCB5)
3.14	SACM1L (effect direction: stabilized) (UniProt Q9NTJ5)
< 2.7	SAE1 (effect direction: stabilized) (UniProt Q9UBE0)
3.18	SARNP (effect direction: destabilized) (UniProt P82979)
3.43	SARS2 (effect direction: stabilized) (UniProt Q9NP81)
3.12	SCCPDH (effect direction: stabilized) (UniProt Q8NBX0)
